Data reported in US11279714B2, “Anti-infective compounds” (priority 2014, dated 2022).
Converted amounts (≈) assume the structure as drawn.

How the values were obtained:
[1] = tested on: M. tuberculosis H37Rv expressing the green fluorescent protein (H37Rv-GFP); test: microbe, parasite or virus in culture; format: cell-based; conditions: for MIC50: Mycobacterium tuberculosis, H37RV, 120 h, read-out: QUM (MIC50)
[2] = tested on: Raw 264.7 cells infected with H37Rv-GFP; test: microbe, parasite or virus in culture; format: cell-based, M. tuberculosis; conditions: for MIC50: Mycobacterium tuberculosis, H37RV, 120 h, read-out: QIM (MIC50)

SMILES | MIC50 [1] | MIC50 [2] | QUM (MIC50, uM) [1] | QIM (MIC50, uM) [2]
O=C(Nc1ccc(F)cc1)c1cc2sc(N3CCC(Oc4ccc(Cl)cc4)CC3)nc2s1 [Compound 235] | > 20 µM | < 1 µM |  | 
O=C(Nc1ccc(-c2ccc(F)cn2)cc1)c1cc2sc(N3CCN4CCCC4C3)nc2s1 (stereo not shown) [Compound 324] | < 1 µM | < 1 µM |  | 
Cc1ccc(-c2ccc(NC(=O)c3cc4sc(N5CCOCC5)nc4s3)cc2)nc1 [Compound 218] | > 20 µM | < 1 µM |  | 
O=C(Nc1ccc(F)cc1)c1cc2sc(OC3CCCCC3)nc2s1 [Compound 334] | 1 to 20 µM (≈ 0.376 to 7.53 µg/mL) | < 1 µM |  | 
COCCN(C)c1nc2sc(C(=O)Nc3ccc(-c4ccc(F)cc4)cn3)cc2s1 [Compound 273] | 1 to 20 µM (≈ 0.443 to 8.85 µg/mL) | < 1 µM |  | 
N#Cc1ccc(NC(=O)c2cc3sc(NCCN4CCOCC4)nc3s2)cc1 [Compound 303] |  | > 20 µM |  | 
CN(CCO)c1nc2sc(C(=O)Nc3ccc(-c4nn(C)cc4Cl)cc3)cc2s1 [Compound 279] |  | 1 to 20 µM (≈ 0.448 to 8.96 µg/mL) |  | 
COC(=O)c1ccc(NC(=O)c2cc3nc(N4CCCCC4)sc3s2)cc1 [Compound 13] | 1 to 20 µM (≈ 0.402 to 8.03 µg/mL) | < 1 µM |  | 
O=C(Nc1ccc(F)cc1)c1cc2sc(N3CCC(C(=O)c4ccc(Cl)cc4)CC3)nc2s1 [Compound 241] | > 20 µM | < 1 µM |  | 
COCCCN(C)c1nc2sc(C(=O)Nc3ccc4oc(C)nc4c3)cc2s1 [Compound 254] |  | < 1 µM |  | 
Cc1nc2cc(NC(=O)c3cc4sc(NCCN5CCN(C)CC5)nc4s3)ccc2o1 [Compound 326] | > 20 µM | > 20 µM |  | 
COCCNc1nc2sc(C(=O)Nc3ccc4oc(C)nc4c3)cc2s1 [Compound 266] | < 1 µM | < 1 µM |  | 
COc1ccc(NC(=O)c2cc3sc(N4CCCCC4)nc3s2)cc1OC [Compound 285] |  | < 1 µM |  | 
CN(C)C(=O)C1CCN(c2nc3sc(C(=O)Nc4ccc(-c5ccn(C)n5)cc4)cc3s2)CC1 [Compound 203] | < 1 µM | < 1 µM |  | 
Cn1ccc(-c2ccc(NC(=O)c3cc4sc(N5CCNCC5)nc4s3)cc2)n1 [Compound 343] | 1 to 20 µM (≈ 0.425 to 8.49 µg/mL) | < 1 µM |  | 
O=C(Nc1ccc(F)cc1)c1cc2sc(NC3CCCN(c4ccc(F)cc4)C3)nc2s1 (stereo not shown) [Compound 318] | > 20 µM | < 1 µM |  | 
Cc1nc2cc(NC(=O)c3cc4sc(NC5CCN(C)CC5)nc4s3)ccc2o1 [Compound 356] | > 20 µM |  |  | 
O=C(Nc1ccc(-c2ccc(F)nc2)cc1)c1cc2sc(NCCN3CCCCC3)nc2s1 [Compound 329] | 1 to 20 µM (≈ 0.482 to 9.63 µg/mL) | < 1 µM |  | 
Cn1ccc(-c2ccc(NC(=O)c3cc4sc(NCCN5CCOCC5)nc4s3)cc2)n1 [Compound 319] | 1 to 20 µM (≈ 0.469 to 9.37 µg/mL) | < 1 µM |  | 
CN(C)C(=O)C1CCN(c2nc3sc(C(=O)Nc4ccc(-c5ccc(F)cn5)cc4)cc3s2)CC1 [Compound 268] |  | < 1 µM |  | 
COCCN(C)c1nc2sc(C(=O)Nc3ccc4oc(C)nc4c3)cc2s1 [Compound 202] | < 1 µM | < 1 µM |  | 
COc1ccc(NC(=O)c2cc3sc(N4CCc5cc(OC)ccc5C4)nc3s2)cc1 [Compound 168] | 1 to 20 µM (≈ 0.452 to 9.03 µg/mL) | < 1 µM |  | 
CC(C)(C)CC(=O)NC1CCN(c2nc3sc(C(=O)Nc4ccc(-c5ccc(F)cn5)cc4)cc3s2)CC1 [Compound 349] | > 20 µM | < 1 µM |  | 
Cc1nc2cc(NC(=O)c3cc4sc(N5CCOC(CO)C5)nc4s3)ccc2o1 (stereo not shown) [Compound 152] | 1 to 20 µM (≈ 0.431 to 8.61 µg/mL) | 1 to 20 µM (≈ 0.431 to 8.61 µg/mL) |  | 

SMILES | MIC50 [1] | MIC50 [2] | QUM (MIC50, uM) [1] | QIM (MIC50, uM) [2]
CN(CC(O)C(F)(F)F)c1nc2sc(C(=O)Nc3ccc(F)cc3)cc2s1 (stereo not shown) [Compound 316] | 1 to 20 µM (≈ 0.419 to 8.39 µg/mL) | < 1 µM |  | 
COc1ccc(-c2ccc(NC(=O)c3cc4sc(NCCN5CCOCC5)nc4s3)cc2)cn1 [Compound 292] | 1 to 20 µM (≈ 0.496 to 9.91 µg/mL) | < 1 µM |  | 
Cc1ccc(-c2ccc(NC(=O)c3cc4sc(N5CCC(C(=O)N(C)C)CC5)nc4s3)cc2)cn1.Cl [Compound 208] |  |  | +++ (+++ indicates <1 uM) | +++ (+++ indicates <1 uM)
CCc1ccc(NC(=O)c2cc3nc(N4CCCCC4)sc3s2)cc1 [Compound 12] | > 20 µM | > 20 µM |  | 
CCN(CC)c1nc2sc(C(=O)Nc3ccc(OC)cc3)cc2s1 [Compound 287] | < 1 µM | < 1 µM |  | 
Cc1nc2cc(NC(=O)c3cc4sc(N5CC[C@@H](C(=O)Nc6ccc7nc(C)oc7c6)C5)nc4s3)ccc2o1 [Compound 222] | 1 to 20 µM (≈ 0.559 to 11.2 µg/mL) | < 1 µM |  | 
Cc1nc2cc(NC(=O)c3cc4sc(N(C)CCN(C)C)nc4s3)ccc2o1 [Compound 253] |  | 1 to 20 µM (≈ 0.416 to 8.31 µg/mL) |  | 
Cc1nc2cc(NC(=O)c3sc4nc(N5CCOCC5)sc4c3N)ccc2o1 [Compound 230] | > 20 µM | > 20 µM |  | 
Cc1nc2cc(NC(=O)c3cc4sc(N5CCN(CCO)CC5)nc4s3)ccc2o1 [Compound 336] | 1 to 20 µM (≈ 0.444 to 8.87 µg/mL) | < 1 µM |  | 
CN(CCO)c1nc2sc(C(=O)Nc3ccc4oc(Cc5ccc(F)cc5)nc4c3)cc2s1 [Compound 251] | 1 to 20 µM (≈ 0.483 to 9.65 µg/mL) | < 1 µM |  | 
C#CCOc1ccc(-c2ccc(NC(=O)c3cc4sc(N(C)CCOC)nc4s3)cc2)cc1 [Compound 358] | < 1 µM | < 1 µM |  | 
CN(C)C(=O)C1CCN(c2nc3sc(C(=O)Nc4ccc5oc(-c6ccc(Cl)cc6)nc5c4)cc3s2)CC1 [Compound 214] | > 20 µM | < 1 µM |  | 
Cc1nc2cc(NC(=O)c3cc4sc(NC5CCOCC5)nc4s3)ccc2o1 [Compound 299] | < 1 µM | < 1 µM |  | 
O=C(Nc1ccc(OCc2ccccc2)cc1)c1cc2sc(N3CCCCC3)nc2s1 [Compound 44] | > 20 µM | < 1 µM |  | 
CN(C)C(=O)C1CCN(c2nc3sc(C(=O)Nc4ccc5oc(Cc6ccc(F)cc6)nc5c4)cc3s2)CC1 [Compound 219] | 1 to 20 µM (≈ 0.564 to 11.3 µg/mL) | < 1 µM |  | 
CC(C)(C)CC(=O)NC1CCN(c2nc3sc(C(=O)Nc4ccc(F)cc4)cc3s2)CC1 [Compound 304] | > 20 µM | < 1 µM |  | 
COc1ccc(CN(CCO)c2nc3sc(C(=O)Nc4ccc5oc(C)nc5c4)cc3s2)cc1 [Compound 248] | 1 to 20 µM (≈ 0.495 to 9.89 µg/mL) | < 1 µM |  | 
O=C(Nc1ccc(N2CCC(O)(Cc3ccccc3)CC2)cc1)c1cc2sc(NCCN3CCOCC3)nc2s1 [Compound 294] | > 20 µM | < 1 µM |  | 
Cc1nc2cc(NC(=O)c3cc4sc(N5CCC(Nc6ccc(F)cc6)CC5)nc4s3)ccc2o1 [Compound 320] | 1 to 20 µM (≈ 0.508 to 10.2 µg/mL) | < 1 µM |  | 
COc1ccc(NC(=O)c2cc3nc(N4CCCCC4)sc3s2)cc1 [Compound 2] | > 20 µM | > 20 µM |  | 
Cc1nc2cc(CNC(=O)c3cc4sc(N5CCOCC5)nc4s3)ccc2o1 [Compound 229] | > 20 µM | 1 to 20 µM (≈ 0.415 to 8.29 µg/mL) |  | 
Cc1nc2cc(NC(=O)c3cc4sc(N5CCC(CC(=O)N(C)C)CC5)nc4s3)ccc2o1 [Compound 307] | < 1 µM | < 1 µM |  | 
O=C(Nc1ccc(CN2CCN(c3ccc(F)cc3)CC2)cc1)c1cc2sc(N3CCOCC3)nc2s1 [Compound 211] | < 1 µM | < 1 µM |  | 
C#CCOc1ccc(-c2ccc(NC(=O)c3cc4sc(NCCN5CCOCC5)nc4s3)cc2)cc1 [Compound 359] | 1 to 20 µM (≈ 0.519 to 10.4 µg/mL) | < 1 µM |  | 

SMILES | MIC50 [1] | MIC50 [2] | QUM (MIC50, uM) [1] | QIM (MIC50, uM) [2]
COC(=O)C1CCN(C(=O)c2cc3nc(N4CCCCC4)sc3s2)CC1 [Compound 24] | 1 to 20 µM (≈ 0.394 to 7.87 µg/mL) | > 20 µM |  | 
CN1CCC(Nc2nc3sc(C(=O)Nc4ccc(F)cc4)cc3s2)CC1 [Compound 313] | > 20 µM | 1 to 20 µM (≈ 0.391 to 7.81 µg/mL) |  | 
CNC(=O)C1CCN(c2nc3sc(C(=O)Nc4ccc5oc(C)nc5c4)cc3s2)CC1 [Compound 212] | 1 to 20 µM (≈ 0.456 to 9.11 µg/mL) | < 1 µM |  | 
Cc1nc2cc(NC(=O)c3cc4sc(NCCO)nc4s3)ccc2o1 [Compound 267] | 1 to 20 µM (≈ 0.374 to 7.49 µg/mL) | 1 to 20 µM (≈ 0.374 to 7.49 µg/mL) |  | 
CN(C)C(=O)C1CCN(c2nc3sc(C(=O)Nc4ccc(-c5n[nH]cc5Cl)cc4)cc3s2)CC1 [Compound 280] |  | > 20 µM |  | 
CN(C)C(=O)C1CCN(c2nc3sc(C(=O)Nc4ccc(-c5ccc(F)cc5)cn4)cc3s2)CC1.CS(=O)(=O)O [Compound 283] |  |  |  | +++ (+++ indicates <1 uM)
Cc1nc2cc(NC(=O)c3cc4sc(N(C)CCC(=O)N(C)C)nc4s3)ccc2o1 [Compound 264] |  | 1 to 20 µM (≈ 0.444 to 8.87 µg/mL) |  | 
COc1ccc(NC(=O)c2cc3sc(N4CCCCC4)nc3s2)c(OC)c1OC [Compound 300] |  | > 20 µM |  | 
Cc1nc2cc(NC(=O)c3cc4sc(N(C)CCOc5ccccc5)nc4s3)ccc2o1 [Compound 256] |  | < 1 µM |  | 
CN(C)C(=O)C1CCN(c2nc3sc(C(=O)Nc4ccc(CN5CCOCC5)cc4)cc3s2)CC1 [Compound 353] | 1 to 20 µM (≈ 0.514 to 10.3 µg/mL) |  |  | 
O=C(Nc1ccc(F)cc1)c1cc2sc(N3CCN4CCCC4C3)nc2s1 (stereo not shown) [Compound 322] | 1 to 20 µM (≈ 0.403 to 8.05 µg/mL) |  |  | 
CN(CCO)c1nc2sc(C(=O)Nc3ccc(-c4n[nH]cc4Cl)cc3)cc2s1 [Compound 281] |  | 1 to 20 µM (≈ 0.434 to 8.68 µg/mL) |  | 
CN(C)C(=O)C1CCN(c2nc3sc(C(=O)Nc4ccc(-c5ccc(F)cn5)cc4)cc3s2)CC1 [Compound 284] | < 1 µM |  |  | 
COc1ccc(NC(=O)c2cc3sc(N4CCCCC4)nc3s2)c(OC)c1 [Compound 286] |  | > 20 µM |  | 
Cc1nc2cc(NC(=O)c3cc4sc(NC5CCN(Cc6ccc(F)cc6)CC5)nc4s3)ccc2o1 [Compound 357] | 1 to 20 µM (≈ 0.522 to 10.4 µg/mL) |  |  | 
CN(C)C(=O)C1CCN(c2nc3sc(C(=O)Nc4ccc(N5CCOCC5)cc4)cc3s2)CC1 [Compound 352] | < 1 µM |  |  | 
CN1CCCC(Nc2nc3sc(C(=O)Nc4ccc(-c5ccc(F)nc5)cc4)cc3s2)C1 (stereo not shown) [Compound 354] | 1 to 20 µM (≈ 0.468 to 9.35 µg/mL) |  |  | 
Cc1nc2cc(NC(=O)c3cc4sc(N(C)CCOC(C)C)nc4s3)ccc2o1 [Compound 255] |  | > 20 µM |  | 
CN(C)C(=O)C1CCN(c2nc3sc(C(=O)Nc4ccc(-c5ccc(F)cc5)nc4)cc3s2)CC1.Cl [Compound 259] |  |  |  | +++ (+++ indicates <1 uM)
O=C(Nc1ccc(-c2ccc(F)cn2)cc1)c1cc2sc(NCCN3CCOCC3)nc2s1 [Compound 293] |  | < 1 µM |  | 
Cc1nc2cc(NC(=O)c3cc4sc(N(C)CCN5CCC5)nc4s3)ccc2o1 [Compound 257] |  | > 20 µM |  | 
CN(C)C(=O)C1CCN(CCNc2nc3sc(C(=O)Nc4ccc(-c5ccc(F)cn5)cc4)cc3s2)CC1 [Compound 355] | 1 to 20 µM (≈ 0.553 to 11.1 µg/mL) |  |  | 
